≈ marks a conversion by molar mass, not a printed value.
Test system: Histophilus somni
Assay: minimum inhibitory concentration (MIC)
Protocol: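 Broth microdilution MIC (Sensititre BOPO7F bovine plate, CLSI methods) of 19 antimicrobials against field isolates of P. multocida, M. haemolytica, H. somni (deep nasopharyngeal swabs) and E. coli, Enterococcus spp. (rectal swabs) from weaned dairy heifers. Incubation 16-24 h at 35 C. MIC is the lowest concentration preventing visible growth. Values with <= or > lie at the tested range limits. Trimethoprim-sulfamethoxazole is given as the trimethoprim component of a 1:19 mixture.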

CCN1CCN(c2cc3c(cc2F)c(=O)c(C(=O)O)cn3C2CC2)CC1 [Enrofloxacin]
Conditions	minimum inhibitory concentration [µg/mL]
isolate (source animal id): 3	≤ 0.12
isolate (source animal id): 4	≤ 0.12
isolate (source animal id): 7	≤ 0.12
isolate (source animal id): 14	≤ 0.12
isolate (source animal id): 15	≤ 0.12
isolate (source animal id): 17	≤ 0.12
isolate (source animal id): 18	≤ 0.12
isolate (source animal id): 20	≤ 0.12
isolate (source animal id): 23	≤ 0.12
isolate (source animal id): 45	≤ 0.12
isolate (source animal id): 53	≤ 0.12
isolate (source animal id): 83	≤ 0.12
isolate (source animal id): 88	≤ 0.12
isolate (source animal id): 92	≤ 0.12
isolate (source animal id): 93	≤ 0.12
isolate (source animal id): 99	≤ 0.12
isolate (source animal id): 100	≤ 0.12
isolate (source animal id): 105	≤ 0.12
isolate (source animal id): 107	≤ 0.12
isolate (source animal id): 108	≤ 0.12
isolate (source animal id): 109	≤ 0.12
isolate (source animal id): 110	≤ 0.12
isolate (source animal id): 117	≤ 0.12
isolate (source animal id): 121	≤ 0.12
isolate (source animal id): 123	≤ 0.12
isolate (source animal id): 124	≤ 0.12
isolate (source animal id): 127	≤ 0.12
isolate (source animal id): 128	≤ 0.12
isolate (source animal id): 130	≤ 0.12
isolate (source animal id): 132	≤ 0.12
isolate (source animal id): 135	≤ 0.12
isolate (source animal id): 140	≤ 0.12
isolate (source animal id): 141	≤ 0.12
isolate (source animal id): 142	≤ 0.12
isolate (source animal id): 144	≤ 0.12
isolate (source animal id): 146	≤ 0.12
isolate (source animal id): 147	≤ 0.12
isolate (source animal id): 151	≤ 0.12
isolate (source animal id): 153	≤ 0.12
isolate (source animal id): 154	≤ 0.12
isolate (source animal id): 156	≤ 0.12
isolate (source animal id): 157	≤ 0.12
isolate (source animal id): 176	≤ 0.12
isolate (source animal id): 183	≤ 0.12
isolate (source animal id): 186	≤ 0.12
isolate (source animal id): 196	≤ 0.12
isolate (source animal id): 198	≤ 0.12
isolate (source animal id): 200	≤ 0.12
isolate (source animal id): 206	≤ 0.12
isolate (source animal id): 208	≤ 0.12
isolate (source animal id): 210	≤ 0.12
isolate (source animal id): 212	≤ 0.12
isolate (source animal id): 215	≤ 0.12
isolate (source animal id): 216	≤ 0.12
isolate (source animal id): 218	≤ 0.12
isolate (source animal id): 219	≤ 0.12
isolate (source animal id): 224	≤ 0.12
isolate (source animal id): 228	≤ 0.12
isolate (source animal id): 230	≤ 0.12
isolate (source animal id): 233	≤ 0.12
isolate (source animal id): 238	≤ 0.12
isolate (source animal id): 239	≤ 0.12
isolate (source animal id): 241	≤ 0.12
isolate (source animal id): 242	≤ 0.12
isolate (source animal id): 243	≤ 0.12
isolate (source animal id): 245	≤ 0.12
isolate (source animal id): 246	≤ 0.12
isolate (source animal id): 247	≤ 0.12
isolate (source animal id): 248	≤ 0.12
isolate (source animal id): 250	≤ 0.12
isolate (source animal id): 251	≤ 0.12
isolate (source animal id): 252	≤ 0.12
isolate (source animal id): 254	≤ 0.12
isolate (source animal id): 258	≤ 0.12
isolate (source animal id): 259	≤ 0.12
isolate (source animal id): 262	≤ 0.12
isolate (source animal id): 264	≤ 0.12
isolate (source animal id): 265	≤ 0.12
isolate (source animal id): 266	≤ 0.12
isolate (source animal id): 267	≤ 0.12
isolate (source animal id): 269	≤ 0.12
isolate (source animal id): 271	≤ 0.12
isolate (source animal id): 272	≤ 0.12
isolate (source animal id): 274	≤ 0.12
isolate (source animal id): 276	≤ 0.12
isolate (source animal id): 278	≤ 0.12
isolate (source animal id): 280	≤ 0.12
isolate (source animal id): 281	≤ 0.12
isolate (source animal id): 283	≤ 0.12
isolate (source animal id): 288	≤ 0.12
isolate (source animal id): 291	≤ 0.12
isolate (source animal id): 292	≤ 0.12
isolate (source animal id): 296	≤ 0.12
isolate (source animal id): 306	≤ 0.12
isolate (source animal id): 336	≤ 0.12
isolate (source animal id): 337	≤ 0.12
isolate (source animal id): 341	≤ 0.12

CS(=O)(=O)c1ccc([C@@H](O)[C@@H](CF)NC(=O)C(Cl)Cl)cc1 [Florfenicol]
Conditions	minimum inhibitory concentration [µg/mL]
isolate (source animal id): 3	≤ 0.25
isolate (source animal id): 4	1 (≈ 2.79 µM)
isolate (source animal id): 7	1 (≈ 2.79 µM)
isolate (source animal id): 14	1 (≈ 2.79 µM)
isolate (source animal id): 15	≤ 0.25
isolate (source animal id): 17	1 (≈ 2.79 µM)
isolate (source animal id): 18	≤ 0.25
isolate (source animal id): 20	1 (≈ 2.79 µM)
isolate (source animal id): 23	≤ 0.25
isolate (source animal id): 45	1 (≈ 2.79 µM)
isolate (source animal id): 53	1 (≈ 2.79 µM)
isolate (source animal id): 83	0.5 (≈ 1.4 µM)
isolate (source animal id): 88	0.5 (≈ 1.4 µM)
isolate (source animal id): 92	0.5 (≈ 1.4 µM)
isolate (source animal id): 93	≤ 0.25
isolate (source animal id): 99	0.5 (≈ 1.4 µM)
isolate (source animal id): 100	0.5 (≈ 1.4 µM)
isolate (source animal id): 105	0.5 (≈ 1.4 µM)
isolate (source animal id): 107	0.5 (≈ 1.4 µM)
isolate (source animal id): 108	1 (≈ 2.79 µM)
isolate (source animal id): 109	0.5 (≈ 1.4 µM)
isolate (source animal id): 110	0.5 (≈ 1.4 µM)
isolate (source animal id): 117	0.5 (≈ 1.4 µM)
isolate (source animal id): 121	0.5 (≈ 1.4 µM)
isolate (source animal id): 123	≤ 0.25
isolate (source animal id): 124	≤ 0.25
isolate (source animal id): 127	≤ 0.25
isolate (source animal id): 128	0.5 (≈ 1.4 µM)
isolate (source animal id): 130	1 (≈ 2.79 µM)
isolate (source animal id): 132	0.5 (≈ 1.4 µM)
isolate (source animal id): 135	0.5 (≈ 1.4 µM)
isolate (source animal id): 140	0.5 (≈ 1.4 µM)
isolate (source animal id): 141	≤ 0.25
isolate (source animal id): 142	1 (≈ 2.79 µM)
isolate (source animal id): 144	≤ 0.25
isolate (source animal id): 146	0.5 (≈ 1.4 µM)
isolate (source animal id): 147	1 (≈ 2.79 µM)
isolate (source animal id): 151	0.5 (≈ 1.4 µM)
isolate (source animal id): 153	≤ 0.25
isolate (source animal id): 154	1 (≈ 2.79 µM)
isolate (source animal id): 156	1 (≈ 2.79 µM)
isolate (source animal id): 157	≤ 0.25
isolate (source animal id): 176	≤ 0.25
isolate (source animal id): 183	≤ 0.25
isolate (source animal id): 186	≤ 0.25
isolate (source animal id): 196	≤ 0.25
isolate (source animal id): 198	≤ 0.25
isolate (source animal id): 200	≤ 0.25
isolate (source animal id): 206	≤ 0.25
isolate (source animal id): 208	≤ 0.25
isolate (source animal id): 210	≤ 0.25
isolate (source animal id): 212	≤ 0.25
isolate (source animal id): 215	≤ 0.25
isolate (source animal id): 216	≤ 0.25
isolate (source animal id): 218	≤ 0.25
isolate (source animal id): 219	≤ 0.25
isolate (source animal id): 224	≤ 0.25
isolate (source animal id): 228	≤ 0.25
isolate (source animal id): 230	≤ 0.25
isolate (source animal id): 233	1 (≈ 2.79 µM)
isolate (source animal id): 238	≤ 0.25
isolate (source animal id): 239	1 (≈ 2.79 µM)
isolate (source animal id): 241	≤ 0.25
isolate (source animal id): 242	≤ 0.25
isolate (source animal id): 243	≤ 0.25
isolate (source animal id): 245	1 (≈ 2.79 µM)
isolate (source animal id): 246	≤ 0.25
isolate (source animal id): 247	≤ 0.25
isolate (source animal id): 248	≤ 0.25
isolate (source animal id): 250	≤ 0.25
isolate (source animal id): 251	≤ 0.25
isolate (source animal id): 252	≤ 0.25
isolate (source animal id): 254	≤ 0.25
isolate (source animal id): 258	≤ 0.25
isolate (source animal id): 259	≤ 0.25
isolate (source animal id): 262	1 (≈ 2.79 µM)
isolate (source animal id): 264	≤ 0.25
isolate (source animal id): 265	≤ 0.25
isolate (source animal id): 266	≤ 0.25
isolate (source animal id): 267	≤ 0.25
isolate (source animal id): 269	≤ 0.25
isolate (source animal id): 271	≤ 0.25
isolate (source animal id): 272	≤ 0.25
isolate (source animal id): 274	1 (≈ 2.79 µM)
isolate (source animal id): 276	≤ 0.25
isolate (source animal id): 278	≤ 0.25
isolate (source animal id): 280	≤ 0.25
isolate (source animal id): 281	≤ 0.25
isolate (source animal id): 283	≤ 0.25
isolate (source animal id): 288	≤ 0.25
isolate (source animal id): 291	0.5 (≈ 1.4 µM)
isolate (source animal id): 292	≤ 0.25
isolate (source animal id): 296	≤ 0.25
isolate (source animal id): 306	≤ 0.25
isolate (source animal id): 336	≤ 0.25
isolate (source animal id): 337	≤ 0.25
isolate (source animal id): 341	≤ 0.25

CCCN1C[C@H](C)[C@@H](O)[C@](C)(O)[C@@H](CC)OC(=O)[C@H](C)[C@@H](O[C@H]2C[C@@](C)(OC)[C@@H](O)[C@H](C)O2)[C@H](C)[C@@H](O[C@@H]2O[C@H](C)C[C@H](N(C)C)[C@H]2O)[C@](C)(O)C[C@H]1C [Gamithromycin]
Conditions	minimum inhibitory concentration [µg/mL]
isolate (source animal id): 3	≤ 1
isolate (source animal id): 4	≤ 1
isolate (source animal id): 7	≤ 1
isolate (source animal id): 14	≤ 1
isolate (source animal id): 15	≤ 1
isolate (source animal id): 17	≤ 1
isolate (source animal id): 18	≤ 1
isolate (source animal id): 20	≤ 1
isolate (source animal id): 23	≤ 1
isolate (source animal id): 45	≤ 1
isolate (source animal id): 53	≤ 1
isolate (source animal id): 83	≤ 1
isolate (source animal id): 88	≤ 1
isolate (source animal id): 92	≤ 1
isolate (source animal id): 93	≤ 1
isolate (source animal id): 99	≤ 1
isolate (source animal id): 100	≤ 1
isolate (source animal id): 105	≤ 1
isolate (source animal id): 107	≤ 1
isolate (source animal id): 108	≤ 1
isolate (source animal id): 109	≤ 1
isolate (source animal id): 110	≤ 1
isolate (source animal id): 117	≤ 1
isolate (source animal id): 121	≤ 1
isolate (source animal id): 123	≤ 1
isolate (source animal id): 124	≤ 1
isolate (source animal id): 127	≤ 1
isolate (source animal id): 128	≤ 1
isolate (source animal id): 130	4 (≈ 5.15 µM)
isolate (source animal id): 132	≤ 1
isolate (source animal id): 135	≤ 1
isolate (source animal id): 140	≤ 1
isolate (source animal id): 141	≤ 1
isolate (source animal id): 142	> 8
isolate (source animal id): 144	≤ 1
isolate (source animal id): 146	4 (≈ 5.15 µM)
isolate (source animal id): 147	> 8
isolate (source animal id): 151	≤ 1
isolate (source animal id): 153	≤ 1
isolate (source animal id): 154	> 8
isolate (source animal id): 156	> 8
isolate (source animal id): 157	≤ 1
isolate (source animal id): 176	≤ 1
isolate (source animal id): 183	≤ 1
isolate (source animal id): 186	≤ 1
isolate (source animal id): 196	≤ 1
isolate (source animal id): 198	≤ 1
isolate (source animal id): 200	≤ 1
isolate (source animal id): 206	≤ 1
isolate (source animal id): 208	≤ 1
isolate (source animal id): 210	≤ 1
isolate (source animal id): 212	≤ 1
isolate (source animal id): 215	≤ 1
isolate (source animal id): 216	≤ 1
isolate (source animal id): 218	≤ 1
isolate (source animal id): 219	≤ 1
isolate (source animal id): 224	≤ 1
isolate (source animal id): 228	≤ 1
isolate (source animal id): 230	≤ 1
isolate (source animal id): 233	≤ 1
isolate (source animal id): 238	≤ 1
isolate (source animal id): 239	≤ 1
isolate (source animal id): 241	≤ 1
isolate (source animal id): 242	≤ 1
isolate (source animal id): 243	≤ 1
isolate (source animal id): 245	≤ 1
isolate (source animal id): 246	≤ 1
isolate (source animal id): 247	≤ 1
isolate (source animal id): 248	≤ 1
isolate (source animal id): 250	≤ 1
isolate (source animal id): 251	≤ 1
isolate (source animal id): 252	≤ 1
isolate (source animal id): 254	≤ 1
isolate (source animal id): 258	≤ 1
isolate (source animal id): 259	≤ 1
isolate (source animal id): 262	≤ 1
isolate (source animal id): 264	≤ 1
isolate (source animal id): 265	≤ 1
isolate (source animal id): 266	≤ 1
isolate (source animal id): 267	≤ 1
isolate (source animal id): 269	≤ 1
isolate (source animal id): 271	≤ 1
isolate (source animal id): 272	≤ 1
isolate (source animal id): 274	≤ 1
isolate (source animal id): 276	≤ 1
isolate (source animal id): 278	≤ 1
isolate (source animal id): 280	≤ 1
isolate (source animal id): 281	≤ 1
isolate (source animal id): 283	≤ 1
isolate (source animal id): 288	≤ 1
isolate (source animal id): 291	≤ 1
isolate (source animal id): 292	≤ 1
isolate (source animal id): 296	≤ 1
isolate (source animal id): 306	≤ 1
isolate (source animal id): 336	≤ 1
isolate (source animal id): 337	≤ 1
isolate (source animal id): 341	≤ 1
